Measurements published in EP4817617A1, “LIPOSOME AGENT, NKT CELL ACTIVATOR, PHARMACEUTICAL COMPOSITION, AND USES OF THESE” (Ambicion Co., Ltd., priority 2023, dated 2025).

Test system: triple-negative breast cancer 4T1 cells
Test: Antitumor effect of α-GalCer liposome against breast cancer by repetitive subcutaneous administration
Type: in vivo, BALB/c mouse
Conditions: s.c. left flank, 4 times every 5 days, α-GalCer 15 µg; n=2 shown
Protocol: The following liposome samples prepared using PBS in Example 1 were used. • (1-2) 50% α-GalCer / negatively charged PEG terminal -OH liposome, 100 nm • (1-11) 0% control / negatively charged PEG terminal -OH liposome, 100 nm The liposome samples were adjusted to a PEGylated liposome concentration of 1 mg/mL (in terms of total lipids), and used as administration samples. PBS was used for the adjustment of the PEGylated liposome concentration. The administration sample prepared from the aforementioned (1-2) was used as the α-GalCer liposome administration sample of the Example (αGal lipo), and the administration sample prepared from the aforementioned (1-11) was used as the control liposome administration sample (Ctrl lipo). In addition, a free GalCer sample (Free αGal) in which free α-GalCer not formulated into a liposome was suspended in PBS, and PBS, were each used as administration samples.
As breast cancer cells, triple-negative breast cancer 4T1 cells were used. 4T1 cells (5.0×10^5 to 1.0×10^6 cells/mouse) were subcutaneously inoculated into the vicinity of the second teat from the top of the left chest of a BALB/c mouse (5 weeks old, female, n=2). When the average tumor volume reached 40 to 100 mm^3, the mice were randomly divided into groups. Then, the administration sample was subcutaneously injected into the left flank of the mouse (Day 0). […]

Structure (SMILES): CCCCCCCCCCCCCCCCCCCCCCCCCC(=O)N[C@@H](CO[C@H]1O[C@H](CO)[C@H](O)[C@H](O)[C@H]1O)[C@H](O)[C@H](O)CCCCCCCCCCCCCC [α-GalCer, (2S,3S,4R)-1-O-(α-D-galactopyranosyl)-2-hexacosanoylamino-1,3,4-octadecanetriol]
- increase in tumor volume: suppressed
